Test results reported in ChEMBL document CHEMBL1201862, “PubChem BioAssay data set” (2004).
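48-hour exposure; five concentrations; linearly interpolated endpoints. GI50: concentration for 50% inhibition of growth.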 Activity calls are given as the source filed them. Cut-off read from the data, not from the text of the source: active = GI50 up to about 1.1 µM and inactive = higher.

Columns and labels:
Experiment in all cases: NCI-60 cell line screen, 48 h
A498 = tested on: A498
ACHN = tested on: ACHN
BT-549 = tested on: BT-549
EKVX = tested on: EKVX
HCT-116 = tested on: HCT-116
HCT-15 = tested on: HCT-15
HL-60 = tested on: HL-60
HT-29 = tested on: HT-29
M14 = tested on: M14
MCF7 = tested on: MCF7
MDA-MB-435 = tested on: MDA-MB-435
Malme-3M = tested on: Malme-3M
NCI-H226 = tested on: NCI-H226
NCI-H522 = tested on: NCI-H522
OVCAR-5 = tested on: OVCAR-5
OVCAR-8 = tested on: OVCAR-8
SK-OV-3 = tested on: SK-OV-3
U-251 = tested on: U-251
UACC-257 = tested on: UACC-257
UO-31 = tested on: UO-31

Structure (SMILES): CC1=NN2C=Nc3c(c(-c4ccc(Cl)cc4)cn3-c3ccc(C)cc3)C2N1 (stereo not given)
- GI50 (A498): > 100 µM (inactive)
- GI50 (ACHN): > 100 µM (inactive)
- GI50 (BT-549): > 100 µM (inactive)
- GI50 (EKVX): > 100 µM (inactive)
- GI50 (HCT-116): 46.2 µM (inactive)
- GI50 (HCT-15): > 100 µM
- GI50 (HL-60): > 100 µM (inactive)
- GI50 (HT-29): 64.4 µM (inactive)
- GI50 (M14): > 100 µM (inactive)
- GI50 (MCF7): > 100 µM (inactive)
- GI50 (MDA-MB-435): > 100 µM (inactive)
- GI50 (Malme-3M): > 100 µM (inactive)
- GI50 (NCI-H226): > 100 µM (inactive)
- GI50 (NCI-H522): > 100 µM (inactive)
- GI50 (OVCAR-5): > 100 µM (inactive)
- GI50 (OVCAR-8): 29.9 µM (inactive)
- GI50 (SK-OV-3): 61.9 µM (inactive)
- GI50 (U-251): 76.2 µM (inactive)
- GI50 (UACC-257): > 100 µM (inactive)
- GI50 (UO-31): > 100 µM (inactive)

Structure (SMILES): CC1OC(O[C@H]2CC[C@]3(C=O)[C@H]4CC[C@]5(C)[C@H](C6=CC(=O)OC6)CC[C@]5(O)[C@@H]4C=C[C@]3(O)C2)CC(O)C1O (stereo not given in full)
- GI50 (A498): 0.176 µM (active)
- GI50 (ACHN): 0.106 µM (active)
- GI50 (BT-549): 0.224 µM (active)
- GI50 (EKVX): 0.261 µM (active)
- GI50 (HCT-116): 0.0885 µM (active)
- GI50 (HCT-15): 0.289 µM
- GI50 (HL-60): 0.196 µM (active)
- GI50 (HT-29): 0.321 µM (active)
- GI50 (M14): 0.386 µM (active)
- GI50 (MCF7): 0.272 µM (active)
- GI50 (MDA-MB-435): 0.346 µM (active)
- GI50 (Malme-3M): 0.13 µM (active)
- GI50 (NCI-H226): 0.514 µM (active)
- GI50 (NCI-H522): 0.0615 µM (active)
- GI50 (OVCAR-5): 0.547 µM (active)
- GI50 (OVCAR-8): 0.346 µM (active)
- GI50 (SK-OV-3): 0.502 µM (active)
- GI50 (U-251): 0.355 µM (active)
- GI50 (UACC-257): 0.579 µM (active)
- GI50 (UO-31): 0.214 µM (active)

Structure (SMILES): CCCCCCCCCCC(O)C1CCC(C2CCC(C(O)CCCCC(O)CCCCCC(O)CC3=CC(C)OC3=O)O2)O1 (stereo not given)
- GI50 (A498): > 25 µM (inactive)
- GI50 (ACHN): > 25 µM (inactive)
- GI50 (BT-549): > 25 µM (inactive)
- GI50 (EKVX): 4.09 µM (inactive)
- GI50 (HCT-116): 0.748 µM (active)
- GI50 (HCT-15): > 25 µM
- GI50 (HL-60): 2.36 µM (inactive)
- GI50 (HT-29): 3.21 µM (inactive)
- GI50 (M14): > 25 µM (inactive)
- GI50 (MCF7): 1.18 µM (inactive)
- GI50 (MDA-MB-435): > 25 µM (inactive)
- GI50 (Malme-3M): > 25 µM (inactive)
- GI50 (NCI-H226): 3.82 µM (inactive)
- GI50 (NCI-H522): 19.1 µM (inactive)
- GI50 (OVCAR-5): > 25 µM (inactive)
- GI50 (OVCAR-8): 4.51 µM (inactive)
- GI50 (SK-OV-3): > 25 µM (inactive)
- GI50 (U-251): > 25 µM (inactive)
- GI50 (UACC-257): 2.12 µM (inactive)
- GI50 (UO-31): > 25 µM (inactive)

Structure (SMILES): COc1ccc(C[C@@H](C(=O)O[C@H](C)[C@H](NC(=O)[C@@H](CC(C)C)N(C)C(=O)C2CCCN2C(=O)[C@H](C)O)C(=O)N2CCCCNC(=O)[C@@H](C)C(=O)[C@H](C(C)C)OC(=O)C[C@H](O)[C@H]2CC(C)C)N(C)C(C)=O)cc1 (stereo not given in full)
- GI50 (A498): 14.3 µM (inactive)
- GI50 (ACHN): 12.6 µM (inactive)
- GI50 (BT-549): 17.5 µM (inactive)
- GI50 (EKVX): 6.78 µM (inactive)
- GI50 (HCT-116): 4.76 µM (inactive)
- GI50 (HCT-15): 16 µM
- GI50 (HL-60): 10.9 µM (inactive)
- GI50 (HT-29): 3.27 µM (inactive)
- GI50 (M14): 9.08 µM (inactive)
- GI50 (MCF7): 2.78 µM (inactive)
- GI50 (MDA-MB-435): 16.7 µM (inactive)
- GI50 (Malme-3M): 10.2 µM (inactive)
- GI50 (NCI-H226): 11.7 µM (inactive)
- GI50 (NCI-H522): 9.25 µM (inactive)
- GI50 (OVCAR-5): 7.89 µM (inactive)
- GI50 (OVCAR-8): 18.9 µM (inactive)
- GI50 (SK-OV-3): 16.1 µM (inactive)
- GI50 (U-251): 3.1 µM (inactive)
- GI50 (UACC-257): 17.5 µM (inactive)
- GI50 (UO-31): 36.1 µM (inactive)

Structure (SMILES): CC(=O)O[C@H]1C(=O)[C@@]2(C)C([C@H](OC(=O)c3ccccc3)[C@]3(O)C[C@H](OC(=O)[C@H](O)[C@@H](NC(=O)c4ccc(Cl)cc4)c4ccccc4)C(C)=C1C3(C)C)C1(OC(C)=O)CO[C@@H]1C[C@@H]2O (stereo not given in full)
- GI50 (A498): 0.322 µM (active)
- GI50 (ACHN): 6.47 µM (inactive)
- GI50 (BT-549): 0.0643 µM (active)
- GI50 (EKVX): 9.2 µM (inactive)
- GI50 (HCT-116): 0.0499 µM (active)
- GI50 (HCT-15): 1.36 µM
- GI50 (HL-60): 0.0025 µM (active)
- GI50 (HT-29): 0.03 µM (active)
- GI50 (M14): 0.0889 µM (active)
- GI50 (MCF7): 0.0181 µM (active)
- GI50 (MDA-MB-435): 0.00507 µM (active)
- GI50 (Malme-3M): 0.094 µM (active)
- GI50 (NCI-H226): 0.173 µM (active)
- GI50 (NCI-H522): 0.0775 µM (active)
- GI50 (OVCAR-5): 0.104 µM (active)
- GI50 (OVCAR-8): 0.0778 µM (active)
- GI50 (SK-OV-3): 0.0986 µM (active)
- GI50 (U-251): 0.092 µM (active)
- GI50 (UACC-257): 0.109 µM (active)
- GI50 (UO-31): 11.1 µM (inactive)

Structure (SMILES): CN(C)c1nc(N(C)C)nc(N(C)C)n1 [ALTRETAMINE]
- GI50 (A498): > 148 µM (inactive)
- GI50 (ACHN): > 150 µM (inactive)
- GI50 (BT-549): > 150 µM (inactive)
- GI50 (EKVX): > 150 µM (inactive)
- GI50 (HCT-116): > 150 µM (inactive)
- GI50 (HCT-15): > 122 µM
- GI50 (HL-60): > 142 µM (inactive)
- GI50 (HT-29): > 150 µM (inactive)
- GI50 (M14): > 150 µM (inactive)
- GI50 (MCF7): > 150 µM (inactive)
- GI50 (MDA-MB-435): > 150 µM (inactive)
- GI50 (Malme-3M): > 147 µM (inactive)
- GI50 (NCI-H226): > 150 µM (inactive)
- GI50 (NCI-H522): 141 µM (inactive)
- GI50 (OVCAR-5): > 147 µM (inactive)
- GI50 (OVCAR-8): > 150 µM (inactive)
- GI50 (SK-OV-3): > 150 µM (inactive)
- GI50 (U-251): > 150 µM (inactive)
- GI50 (UACC-257): > 150 µM (inactive)
- GI50 (UO-31): > 147 µM (inactive)
